Measurements taken from PMC6003898 (EJNMMI Research, 2018).

Experiments:
[1] = tested on: human U87-MG glioblastoma tumor xenografts in the flank; test: in vivo; settings: mouse
Description: (§1) Tumor xenografts were obtained in mice flanks as described previously. Six-week-old female immunodeficient (nu/nu) NMRI mice, weighing 20–25 g, were obtained from Janvier Laboratories (Le Genest Saint Isle, France) and housed in ventilated cages including filter tops with an ad libitum access to food and water. Two xenograft tumors were induced in all mice through subcutaneous flank injections of 2.10^6 of human U87-MG cells. Tumor growth was assessed twice weekly, according to tumor volume (in mm^3) calculated with the formula d2 × D/2, where d and D represent the shortest and longest diameters, respectively, calculated in millimeter with a caliper (decrescent PRC, EDVC, France).
(§2) At the end of the 2nd PET recording, the animals were sacrificed by inhalation of 5% of isoflurane followed by cervical dislocation. Tumors were subsequently surgically removed for further histopathological analysis.
(§3) List-mode acquisitions of 120 min durations were initiated a few seconds prior to tracer injection, and the acquired PET data were subsequently reconstructed in 27 consecutive frames (i.e., 5 frames of 120-s duration followed by 22 frames of 5-min duration) using the ordered-subsets expectation maximization 3D algorithm (OSEM3D, 4 iterations, 16 subsets, zoom 1) together with scatter and attenuation corrections based on transmission source measurement. The final voxel size was 0.8 × 0.8 × 0.9 mm^3.
(§4) Tumor and of various organ activities were determined through SUV mean values within 3D regions of interests (ROI), which were drawn with a dedicated software (Inveon Research Workplace 4.1, Siemens®, Knoxville, USA) on the fusion images encompassing the entire 120-min recording period. Spheroid ROIs were placed inside the liver, brain, and kidney regions with the ROI limits approximating the organ limits as close as possible. Tumor and heart ROIs were obtained with isocontour ROIs and threshold limits of 50 and 80%, respectively, of the maximal voxel value.

[2] = tested on: human U87-MG glioblastoma tumor xenografts in the flank; settings: mouse, iv
Description: Animals were sacrificed by cervical dislocation 60 min after injection. Various tissues (tumor, liver, heart, brain, and kidney) were dissected, weighed, and counted in a calibrated gamma counter (Wizard, PerkinElmer, France). The results were expressed as percentages of injected dose and per gram of tissue (% ID/g).

[3] = tested on: human U87-MG glioblastoma tumor xenografts in the brain; test: in vivo; settings: rat
From the text: (§5) Briefly, 8-week-old athymic male nude rats (180–220 g), (Hsd: RH-Foxn1rnu; Envigo, Gannat, France), were anesthetized with a mixture of air and 1.5–2% isoflurane and were placed in a Kopf stereotactic frame (900 M Kopf Instruments, Tujunga, CA). After a scalp incision, a burr hole was drilled 0.5 mm anterior and 2.7 mm lateral to bregma and a skull anchor (Patent N° 11 55596) was affixed.

in vivo [4] = settings: female, NMRI nu/nu, mouse, iv, 6 MBq, total radioactivity
Description: as §1, §2, §3, §4

in vivo [5] = settings: male, athymic nude (Hsd: RH-Foxn1rnu), rat, total radioactivity
From the text: as §5

| course of tumor uptake with time [1] | tumor-to-normal brain ratio (PET imaging) [1] | mean tumor activity (SUVmean) ([1]; iv) | tumor-to-normal brain ratio (ex vivo biodistribution data, gamma counter) [2] [%ID/g] | tumor activity relative to contralateral normal brain [3] | Structure (SMILES) | route of tracer clearance [1] | SUV at 1 h (in vivo [4]) [SUV] | SUV (in vivo [5]; SUVmean_ contralateral normal brain) [SUV] | SUV (in vivo [5]; SUVmean_Tumor) [SUV] |
| --- | --- | --- | --- | --- | --- | --- | --- | --- | --- |
| progressive enhancement | 1.5 ± 0.37 | 1.19 ± 0.33 | 0.61 ± 0.2 | 1.62 ± 0.15 | OC[C@H]1OC(O)[C@H](F)[C@@H](O)[C@@H]1O (stereo partly shown) [^18F-FDG, ^18F-fluorodeoxyglucose] | primary renal route of tracer clearance | – | – | – |
| – | – | – | – | – | N=C(N)NCCC[C@@H]1NC(=O)[C@H](CCCCNC(=O)CCC(C(=O)O)N2CCN(CC(=O)O)CCN(CC(=O)O)CC2)NC(=O)[C@@H](Cc2ccc(O)cc2)NC(=O)[C@H](CC(=O)O)NC(=O)CNC1=O (stereo partly shown) [^68Ga-NODAGA-RGD, metal not drawn] | primary renal route of tracer clearance | 0.23 ± 0.04 | 0.1 | 0.5 |
